Test: Inhibition of human recombinant ICAM-1 adhesion into human Jurkat cells after 1 hr

IC50: 2.98 nM
SMILES: CS(=O)(=O)c1cccc(C[C@H](NC(=O)c2c(Cl)cc3c(c2Cl)CCN(C(=O)c2ccc4ccoc4c2)C3)C(=O)O)c1
